# Results: patent US20070093520A1, “Method of treatment of diarrhea-predominant irritable bowel syndrome in a subject” (priority 2005, published 2007)
# Tested on: diarrhea-predominant IBS subjects
# Format: in vivo, human
# Conditions: TEAE incidence, 2 mg, Safety Population
# Description: The study was performed in approximately 150 study centers. Approximately 1600 eligible subjects were to be given cilansetron 2 mg TID. At Visit 1, pre-treatment assessments were conducted. […] Subjects were to return to the study site one month later for Visit 3 (Day 31) for their first interim assessment. […] All subjects who discontinued from the study were to have the same post-study assessments required at Visit 7 performed at their early termination visit. […]
# Stool specimens were analyzed at every visit for occult blood. An independent GERB had been established to provide advice on GI AEs during the course of the study.
# Adverse events were assessed at Baseline, at each clinic visit, and at the end of the study (Month 12 or the early termination visit). All AEs, which occurred during the study were followed up in accordance with good medical practice until resolved or judged no longer clinically significant, or if a condition was chronic, until fully characterized. Adverse events could occur in the specified follow-up period and, regardless of the interval since the last administration of the study medication, were treated in the same manner as an AE which occurred during the treatment with study medication. Each AE was evaluated for duration, severity, seriousness, and causal relationship to the investigational drug. The action taken and the outcome were also recorded.
# Specifically, subjects who were lost to follow-up and had no post-Baseline contact with the site were excluded from the Safety population. The subjects who discontinued from the study due to lost to follow-up were identified based on the information collected on the study termination CRF page.
# After the pretreatment assessment at Visit 1 (Days […] to −3), subjects were to return to the study site for a Baseline assessment and start the treatment at Visit 2 (Day 1).
# For the by time-interval analyses of disposition, prevalence of AEs, and of markedly abnormal and predefined changes in laboratory values, vital signs, and ECGs, the following interval windows were used:
# Adverse events that were already present prior to the first dose of cilansetron study medication but increased in severity afterwards were considered as treatment-emergent.
# The 5% cutoff point was based on the incidence within higher level terms.
# Subjects were counted at most once for each primary system organ class and preferred term. Serious AEs that resolved prior to receiving study medication or occurred more than 30 days after the last dose of study medication were not included in the incidence tables. A listing of all SAEs is presented; SAEs with onset prior to receiving study medication or more than 30 days after discontinuation of study medication were flagged. The listing presents lower level term and preferred term of the SAE, severity, action taken, outcome, and relationship of the SAE, start and stop date of the SAE, study day of onset of the SAE, age, race, and sex.
structure (smiles),measurement,setting,value
"Cc1nccn1C[C@H]1CCc2c(c3cccc4c3n2CCC4)C1=O [cilansetron, (R)-(−)-4,5,6,8,9,10-hexahydro-10-[(2-methyl-1H-imidazol-1-yl)methyl]-11H-pyrido-[3,2,1-jk]-carbazol-11-one]",Neurosis NOS,PT,5 (<1%) n (%)
same,Nightmare,PT,2 (<1%) n (%)
same,Nocturia,PT,1 (<1%) n (%)
same,Oedema Peripheral,PT,1 (<1%) n (%)
same,Oligomenorrhoea NOS*,PT,2 (<1%) n (%)
same,Onychoschizia,PT,1 (<1%) n (%)
same,Osteoarthritis Aggravated,PT,1 (<1%) n (%)
same,Osteochondrosis,PT,1 (<1%) n (%)
same,Osteoporosis NOS,PT,4 (<1%) n (%)
same,Ovarian Cyst*,PT,2 (<1%) n (%)
same,Overweight,PT,1 (<1%) n (%)
same,Pain NOS,PT,5 (<1%) n (%)
same,Pain in Limb,PT,11 (<1%) n (%)
same,Palpitations,PT,5 (<1%) n (%)
same,Panic Disorder NOS,PT,4 (<1%) n (%)
same,Peripheral Swelling,PT,3 (<1%) n (%)
same,Pharyngitis,PT,27 (2%) n (%)
same,Pharyngolaryngeal Pain,PT,2 (<1%) n (%)
same,Photodermatosis,PT,1 (<1%) n (%)
same,Polyarthritis,PT,1 (<1%) n (%)
same,Polymenorrhoea*,PT,1 (<1%) n (%)
same,Polymyalgia,PT,1 (<1%) n (%)
same,Polyuria,PT,2 (<1%) n (%)
same,Post Procedural Haemorrhage,PT,1 (<1%) n (%)
same,Post Procedural Pain,PT,4 (<1%) n (%)
same,Postmenopausal Haemorrhage*,PT,1 (<1%) n (%)
same,Postmenopausal Symptoms*,PT,1 (<1%) n (%)
same,Productive Cough,PT,1 (<1%) n (%)
same,Prostatic Pain*,PT,1 (<1%) n (%)
same,Prostatitis*,PT,3 (<1%) n (%)
same,Proteinuria,PT,2 (<1%) n (%)
same,Pruritus Generalised,PT,2 (<1%) n (%)
same,Pruritus NOS,PT,11 (<1%) n (%)
same,Psoriasis,PT,5 (<1%) n (%)
same,Pyoderma,PT,1 (<1%) n (%)
same,Pyrexia,PT,20 (1%) n (%)
same,Radius Fracture,PT,2 (<1%) n (%)
same,Rash Generalised,PT,3 (<1%) n (%)
same,Rash NOS,PT,10 (<1%) n (%)
same,Rash Papular,PT,1 (<1%) n (%)
same,Rash Pruritic,PT,1 (<1%) n (%)
same,Renal Colic,PT,4 (<1%) n (%)
same,Renal Cyst NOS,PT,1 (<1%) n (%)
same,Respiratory Disorder NOS,PT,1 (<1%) n (%)
same,Restlessness,PT,1 (<1%) n (%)
same,Rheumatoid Arthritis,PT,1 (<1%) n (%)
same,Rheumatoid Arthritis Aggravated,PT,1 (<1%) n (%)
same,Rhinitis Allergic NOS,PT,4 (<1%) n (%)
same,Rhinitis NOS,PT,4 (<1%) n (%)
same,Rhinorrhoea,PT,2 (<1%) n (%)
same,Rib Fracture,PT,2 (<1%) n (%)
same,Road Traffic Accident,PT,1 (<1%) n (%)
same,Rosacea,PT,1 (<1%) n (%)
same,Scar,PT,1 (<1%) n (%)
same,Scleroderma,PT,1 (<1%) n (%)
same,Seborrhoea,PT,1 (<1%) n (%)
same,Sensation of Foreign Body NOS,PT,1 (<1%) n (%)
same,Sinus Arrhythmia,PT,2 (<1%) n (%)
same,Sinus Bradycardia,PT,3 (<1%) n (%)
same,Sinus Congestion,PT,1 (<1%) n (%)
same,Sinus Tachycardia,PT,9 (<1%) n (%)
same,Skin Disorder NOS,PT,1 (<1%) n (%)
same,Skin Eruption,PT,1 (<1%) n (%)
same,Skin Inflammation NOS,PT,1 (<1%) n (%)
same,Skin Necrosis,PT,1 (<1%) n (%)
same,Skin Odour Abnormal,PT,1 (<1%) n (%)
same,Skin Ulcer,PT,1 (<1%) n (%)
same,Sleep Disorder NOS,PT,2 (<1%) n (%)
same,Sneezing,PT,2 (<1%) n (%)
same,Snoring,PT,1 (<1%) n (%)
same,Soft Tissue Injury NOS,PT,1 (<1%) n (%)
same,Solar Keratosis,PT,1 (<1%) n (%)
same,Spinal Osteoarthritis,PT,1 (<1%) n (%)
same,Spondylosis,PT,2 (<1%) n (%)
same,Sputum Discoloured,PT,1 (<1%) n (%)
same,Stress Incontinence,PT,2 (<1%) n (%)
same,Stress Symptoms,PT,8 (<1%) n (%)
same,Supraventricular Extrasystoles,PT,1 (<1%) n (%)
same,Sweating Increased,PT,7 (<1%) n (%)
same,Tachycardia NOS,PT,3 (<1%) n (%)
same,Tachycardia Paroxysmal NOS,PT,1 (<1%) n (%)
same,Tendon Injury,PT,1 (<1%) n (%)
same,Tendonitis,PT,3 (<1%) n (%)
same,Thermal Burn,PT,1 (<1%) n (%)
same,Thirst,PT,1 (<1%) n (%)
same,Toe Deformities NOS,PT,1 (<1%) n (%)
same,Tonsillar Hypertrophy,PT,1 (<1%) n (%)
same,Traumatic Chest Injury NOS,PT,1 (<1%) n (%)
same,Upper Respiratory Tract Inflammation,PT,1 (<1%) n (%)
same,Urethral Stricture,PT,1 (<1%) n (%)
same,Urinary Frequency,PT,5 (<1%) n (%)
same,Urinary Incontinence,PT,4 (<1%) n (%)
same,Urinary Incontinence Aggravated,PT,1 (<1%) n (%)
same,Urine Odour Abnormal,PT,1 (<1%) n (%)
same,Urticaria NOS,PT,4 (<1%) n (%)
same,Uterine Cervical Erosion*,PT,1 (<1%) n (%)
same,Uterine Prolapse*,PT,1 (<1%) n (%)
same,Vaginal Prolapse*,PT,1 (<1%) n (%)
same,Ventricular Extrasystoles,PT,3 (<1%) n (%)
same,Ventricular Hypertrophy,PT,1 (<1%) n (%)
same,Vitamin B12 Deficiency,PT,2 (<1%) n (%)
same,Weakness,PT,14 (<1%) n (%)
same,Weight Fluctuation,PT,1 (<1%) n (%)
same,Wheezing,PT,1 (<1%) n (%)
same,Wrist Fracture,PT,2 (<1%) n (%)
same,Cardiac Disorders,SOC,46 (3%) n (%)
same,General Disorders and Administration Site Conditions,SOC,85 (6%) n (%)
same,"Injury, Poisoning and Procedural Complications",SOC,59 (4%) n (%)
same,Metabolism and Nutrition Disorders,SOC,54 (4%) n (%)
same,Psychiatric Disorders,SOC,74 (5%) n (%)
same,Renal and Urinary Disorders,SOC,40 (3%) n (%)
same,Reproductive System and Breast Disorders,SOC,38 (3%) n (%)
same,"Respiratory, Thoracic and Mediastinal Disorders",SOC,91 (6%) n (%)
same,Skin and Subcutaneous Tissue Disorders,SOC,70 (5%) n (%)
